According to PubChem BioAssay AID248 (DTP/NCI, 2004):
Where “and” joins values, the source holds several entries; their conditions need not be identical. Equal values may be shown once. Toxic doses and inconclusive results are not listed. Cut-off read from the data, not from the text of the source: active = T/C of 150% or more; inactive = T/C below 125%.

System: L1210 leukemia ip in BDF1 mice, survival T/C
Assay: NCI In Vivo Anticancer Drug Screen. Data for tumor model L1210 Leukemia (intraperitoneal) in B6D2F1 (BDF1) mice
Settings: endpoint: mean survival time, higher = longer survival
How it was run: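 Each compound was tested against a transplantable tumor grown in mice. The endpoint was survival, with treated animals benchmarked against vehicle controls as a simple ratio.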

[1] = dose: 100.0 mg/kg/injection, schedule: Q04DX003 (ip), vehicle: saline
[2] = dose: 200.0 mg/kg/injection, schedule: Q04DX003 (ip), vehicle: saline
[3] = dose: 400.0 mg/kg/injection, schedule: Q04DX003 (ip), vehicle: saline
[4] = dose: 100.0 mg/kg/injection, schedule: Q04DX002 (ip), vehicle: saline
[5] = dose: 200.0 mg/kg/injection, schedule: Q04DX002 (ip), vehicle: saline
[6] = dose: 400.0 mg/kg/injection, schedule: Q04DX002 (ip), vehicle: saline
[7] = dose: 100.0 mg/kg/injection, schedule: Q01DX009 (ip), vehicle: Klucel (hydroxypropylcellulose) (HPC)
[8] = dose: 200.0 mg/kg/injection, schedule: Q01DX009 (ip), vehicle: Klucel (hydroxypropylcellulose) (HPC)
[9] = dose: 400.0 mg/kg/injection, schedule: Q01DX009 (ip), vehicle: Klucel (hydroxypropylcellulose) (HPC)

Measured: T/C

CC(=O)NCCc1ccc(NCc2cnc3nc(N)nc(N)c3n2)cc1
inactive: dose: 20.0 mg/kg/injection, schedule: Q01DX009 (ip), vehicle: Klucel (hydroxypropylcellulose) (HPC) 98 % of control | dose: 40.0 mg/kg/injection, schedule: Q01DX009 (ip), vehicle: Klucel (hydroxypropylcellulose) (HPC) 96 % of control | dose: 80.0 mg/kg/injection, schedule: Q01DX009 (ip), vehicle: Klucel (hydroxypropylcellulose) (HPC) 98 % of control

CC(=O)O/C=C\c1ccccc1
inactive: dose: 50.0 mg/kg/injection, schedule: Q01DX001 (ip), vehicle: carboxymethylcellulose (CMC) 104 % of control | dose: 100.0 mg/kg/injection, schedule: Q01DX001 (ip), vehicle: carboxymethylcellulose (CMC) 98 % of control | dose: 200.0 mg/kg/injection, schedule: Q01DX001 (ip), vehicle: carboxymethylcellulose (CMC) 107 % of control | dose: 400.0 mg/kg/injection, schedule: Q01DX001 (ip), vehicle: carboxymethylcellulose (CMC) 98 % of control

COC(=O)C(C(=O)OC)=C(C(=O)OC)C(=O)OC
inactive: dose: 100.0 mg/kg/injection, schedule: Q04DX003 (ip), vehicle: saline with Tween-80 89 % of control | dose: 200.0 mg/kg/injection, schedule: Q04DX003 (ip), vehicle: saline with Tween-80 94 % of control | dose: 400.0 mg/kg/injection, schedule: Q04DX003 (ip), vehicle: saline with Tween-80 93 % of control

C(#[C][Sb]([C]#Cc1ccccc1)[C]#Cc1ccccc1)c1ccccc1
inactive: [1] 98 % of control | [2] 106 % of control | [3] 102 % of control

Nc1nc(N)nc(CCN2CCCCC2)n1
inactive: dose: 6.25 mg/kg/injection, schedule: Q01DX001 (ip), vehicle: saline with Tween-80 94 % of control | dose: 12.5 mg/kg/injection, schedule: Q01DX001 (ip), vehicle: saline with Tween-80 102 % of control | dose: 25.0 mg/kg/injection, schedule: Q01DX001 (ip), vehicle: saline with Tween-80 102 % of control

COc1cc(C)c(Cc2cnc(N)nc2N)cc1OC
inactive: dose: 100.0 mg/kg/injection, schedule: Q04DX003 (ip), vehicle: Klucel (hydroxypropylcellulose) (HPC) 97 % of control | dose: 200.0 mg/kg/injection, schedule: Q04DX003 (ip), vehicle: Klucel (hydroxypropylcellulose) (HPC) 89 % of control

C=CCOCCC#N
inactive: dose: 25.0 mg/kg/injection, schedule: Q01DX009 (ip), vehicle: saline with Tween-80 95 % of control | dose: 50.0 mg/kg/injection, schedule: Q01DX009 (ip), vehicle: saline with Tween-80 97 % of control | dose: 100.0 mg/kg/injection, schedule: Q01DX009 (ip), vehicle: saline with Tween-80 100 % of control

O=S(=O)(O)c1ccc(Cl)c(Cl)c1
inactive: [4] 107 % of control | [5] 100 % of control | [6] 107 % of control

O=C(Nc1cccc(F)c1)N(Cc1ccccc1)Cc1ccccc1
inactive: [7] 92 % of control | [8] 102 % of control | [9] 97 % of control

CC(O)[CH2][Sb]([Br])([Br])([c]1ccccc1)[c]1ccccc1 (configuration not stated)
inactive: dose: 5.0 mg/kg/injection, schedule: Q04DX002 (ip), vehicle: saline with Tween-80 97 % of control | dose: 10.0 mg/kg/injection, schedule: Q04DX002 (ip), vehicle: saline with Tween-80 104 % of control | dose: 20.0 mg/kg/injection, schedule: Q04DX002 (ip), vehicle: saline with Tween-80 104 % of control

NC(Cc1ccc(O)cc1)C(=O)CCl (configuration not stated)
inactive: dose: 25.0 mg/kg/injection, schedule: Q04DX002 (ip), vehicle: saline 110 % of control | dose: 50.0 mg/kg/injection, schedule: Q04DX002 (ip), vehicle: saline 105 % of control

Cc1ccc(-c2ccccc2)cc1C(=O)O
inactive: dose: 100.0 mg/kg/injection, schedule: Q04DX002 (ip), vehicle: Klucel (hydroxypropylcellulose) (HPC) 94 % of control | dose: 200.0 mg/kg/injection, schedule: Q04DX002 (ip), vehicle: Klucel (hydroxypropylcellulose) (HPC) 90 % of control | dose: 400.0 mg/kg/injection, schedule: Q04DX002 (ip), vehicle: Klucel (hydroxypropylcellulose) (HPC) 101 % of control

C/C=N\N=C(N)N
inactive: dose: 15.0 mg/kg/injection, schedule: Q01DX Z (ip), vehicle: saline 91 % of control | dose: 30.0 mg/kg/injection, schedule: Q01DX Z (ip), vehicle: saline 97 % of control | dose: 60.0 mg/kg/injection, schedule: Q01DX Z (ip), vehicle: saline 100 % of control | dose: 120.0 mg/kg/injection, schedule: Q01DX Z (ip), vehicle: saline 94 % of control | dose: 120.0 mg/kg/injection, schedule: Q01DX Z (oral), vehicle: other 95 % of control | dose: 240.0 mg/kg/injection, schedule: Q01DX Z (oral), vehicle: other 97 % of control | dose: 480.0 mg/kg/injection, schedule: Q01DX Z (oral), vehicle: other 102 % of control | dose: 960.0 mg/kg/injection, schedule: Q01DX Z (oral), vehicle: other 122 % of control

C[S+](C)(=O)CCCS(=O)(=O)[O-]
inactive: [4] 99 % of control | [5] 92 % of control | [6] 92 % of control

CCOC(=O)c1cnc(SC)nc1Nc1cccc(C(F)(F)F)c1
inactive: dose: 50.0 mg/kg/injection, schedule: Q01DX001 (ip), vehicle: gum acacia 96 % of control | dose: 87.0 mg/kg/injection, schedule: Q01DX009 (ip), vehicle: gum acacia 100 % of control | dose: 100.0 mg/kg/injection, schedule: Q01DX001 (ip), vehicle: gum acacia 89 % of control and 90 % of control | dose: 175.0 mg/kg/injection, schedule: Q01DX009 (ip), vehicle: gum acacia 99 % of control | dose: 200.0 mg/kg/injection, schedule: Q01DX001 (ip), vehicle: gum acacia 89 % of control | dose: 350.0 mg/kg/injection, schedule: Q01DX009 (ip), vehicle: gum acacia 94 % of control | dose: 400.0 mg/kg/injection, schedule: Q01DX001 (ip), vehicle: gum acacia 99 % of control

CCCCNC(=O)NNC(=O)OCC
inactive: [1] 100 % of control | [2] 100 % of control | [3] 100 % of control

Cc1ccc(S(=O)(=O)N(C)c2ccc(C#N)cc2F)cc1
inactive: [1] 102 % of control | [2] 98 % of control | [3] 102 % of control

CC(=O)Nc1nc2[nH]ccc2c(=O)[nH]1
inactive: dose: 75.0 mg/kg/injection, schedule: Q01DX001 (ip), vehicle: other 106 % of control | dose: 150.0 mg/kg/injection, schedule: Q01DX001 (ip), vehicle: other 104 % of control | dose: 300.0 mg/kg/injection, schedule: Q01DX001 (ip), vehicle: other 103 % of control

O=[N+]([O-])c1cc(/C=N/Nc2nnc(N/N=C/c3ccc(Cl)c([N+](=O)[O-])c3)c3ccccc23)ccc1Cl
inactive: dose: 50.0 mg/kg/injection, schedule: Q01DX001 (ip), vehicle: saline 106 % of control | dose: 100.0 mg/kg/injection, schedule: Q01DX001 (ip), vehicle: saline 96 % of control | dose: 200.0 mg/kg/injection, schedule: Q01DX001 (ip), vehicle: saline 100 % of control | dose: 400.0 mg/kg/injection, schedule: Q01DX001 (ip), vehicle: saline 100 % of control

CCOC(=O)Nc1cc2ccncc2c2sc3ccccc3c12
inactive: dose: 100.0 mg/kg/injection, schedule: Q04DX003 (ip), vehicle: water 92 % of control | dose: 200.0 mg/kg/injection, schedule: Q04DX003 (ip), vehicle: water 87 % of control | dose: 400.0 mg/kg/injection, schedule: Q04DX003 (ip), vehicle: water 101 % of control

COc1c(Cl)c(C(Cl)(Cl)Cl)nc2ccccc12
inactive: dose: 50.0 mg/kg/injection, schedule: Q01DX009 (ip), vehicle: Klucel (hydroxypropylcellulose) (HPC) 101 % of control | [7] 104 % of control

CC(=O)[O][Hg][c]1s[c]([Hg][O]C(C)=O)[c]([Hg][O]C(C)=O)[c]1[Hg][O]C(C)=O
inactive: dose: 6.25 mg/kg/injection, schedule: Q04DX003 (ip), vehicle: Klucel (hydroxypropylcellulose) (HPC) 104 % of control | dose: 12.5 mg/kg/injection, schedule: Q04DX003 (ip), vehicle: Klucel (hydroxypropylcellulose) (HPC) 102 % of control | dose: 25.0 mg/kg/injection, schedule: Q04DX003 (ip), vehicle: Klucel (hydroxypropylcellulose) (HPC) 95 % of control | dose: 50.0 mg/kg/injection, schedule: Q04DX003 (ip), vehicle: Klucel (hydroxypropylcellulose) (HPC) 101 % of control

COC(=O)c1ccccc1NC(=O)c1ccco1
inactive: [7] 97 % of control | [8] 96 % of control | [9] 91 % of control

CN(C)CCOC(=O)c1cc(CCBr)cc(CCBr)c1
inactive: dose: 2.5 mg/kg/injection, schedule: Q01DX009 (ip), vehicle: saline 92 % of control | dose: 5.0 mg/kg/injection, schedule: Q01DX009 (ip), vehicle: saline 97 % of control | dose: 10.0 mg/kg/injection, schedule: Q01DX009 (ip), vehicle: Klucel (hydroxypropylcellulose) (HPC) 95 % of control | dose: 10.0 mg/kg/injection, schedule: Q01DX009 (ip), vehicle: saline 94 % of control
